ChEMBL document CHEMBL3137667, “[Drug-induced liver injury; fourteenth updated edition of the bibliographic database of liver injuries and related drugs]” (Gastroenterol Clin Biol, 2004)

Assays:
[1] = human, serum
[2] = human
[3] = human; remark: listed apart in the source
[4] = human; remark: listed apart in the source
[5] = human; remark: listed apart in the source
[6] = human; remark: listed apart in the source
[7] = human; remark: listed apart in the source
[8] = human, serum, 4383 h
[9] = human, serum; remark: listed apart in the source
[10] = Highest frequency of moderate liver toxicity observed during clinical trials, expressed as a percentage. [column '% BIOL' in source]; settings: human
[11] = Highest frequency of acute liver toxicity observed during clinical trials, expressed as a percentage. [column '% AIGUE' in source]; settings: human
[12] = human; remark: listed apart in the source
[13] = human; remark: listed apart in the source
[14] = human; remark: listed apart in the source
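For Hepatotoxicity (association with vascular disease) in this document: count of indexed literature references reporting vascular liver injury in humans, e.g. peliosis hepatitis, hepatic veno-occlusive disease or Budd-Chiari syndrome.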
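For Hepatotoxicity (benign tumour) in this document: value is a count of indexed literature references citing a benign tumour confirmed by histopathology.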
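For Hepatotoxicity (choleostasis) in this document: human cholestatic liver injury, shown by histopathology or by peak ALT or AST elevation over alkaline phosphatase ratio below 2, value counts indexed literature reports.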
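For Hepatotoxicity (chronic liver disease) in this document: chronic liver injury confirmed by histopathology or persistently raised serum aminotransferase activity beyond 6 months, value given as the count of indexed literature references.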
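For Hepatotoxicity (cirrhosis) in this document: value is a count of indexed literature references reporting cirrhosis confirmed by histopathology.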
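For Hepatotoxicity (cytolytic) in this document: human cytolytic liver injury, shown by histopathology or by a ratio above 5 of peak ALT or AST elevation to alkaline phosphatase elevation, value counts indexed references.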
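For Hepatotoxicity (granulomatous hepatitis) in this document: value is a count of indexed literature references reporting granulomatous liver disease confirmed by histopathology.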
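For Hepatotoxicity (malignant tumour) in this document: malignant tumour confirmed by histopathology, value gives the count of indexed literature references reporting it.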
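For Hepatotoxicity (severe hepatitis) in this document: human clinical data: severe hepatitis, meaning potentially life-threatening liver failure or clinically observed cases, the value counts how many indexed literature references report it.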
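For Hepatotoxicity (steatosis) in this document: steatosis confirmed by histopathology, value is the count of indexed references.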

SMILES	Hepatotoxicity (moderate) [1]	Hepatotoxicity (steatosis) [2]	Hepatotoxicity (malignant tumour) [3]	Hepatotoxicity (association with vascular disease) [4]	Hepatotoxicity (benign tumour) [5]	Hepatotoxicity (cytolytic) [6]	Hepatotoxicity (choleostasis) [7]	Hepatotoxicity (chronic liver disease) [8]	Hepatotoxicity (acute) [9]	Hepatotoxicity (moderate) [10] [%]	Hepatotoxicity (acute) [11] [%]	Hepatotoxicity (granulomatous hepatitis) [12]	Hepatotoxicity (severe hepatitis) [13]	Hepatotoxicity (cirrhosis) [14]
CO/N=C(\C(=O)N[C@@H]1C(=O)N2C(C(=O)[O-])=C(C[N+]34CCC(C(N)=O)(CC3)CC4)CS[C@H]12)c1nsc(N)n1 [CEFCLIDIN]	49	0	0	0	0	0	0	0	0	40	0	0	1	0
CO/N=C(\C(=O)N[C@@H]1C(=O)N2C(C(=O)OCOC(=O)C(C)(C)C)=C(/C=C\c3scnc3C)CS[C@H]12)c1csc(N)n1 [CEFDITOREN PIVOXIL]	41	0	0	0	0	0	0	0	0	37.5	0	0	0	0
CO[C@@]1(NC(=O)CSCC#N)C(=O)N2C(C(=O)O)=C(CSc3nnnn3C)CS[C@@H]21 [CEFMETAZOLE]	5	0	0	0	0	0	0	0	0	9.1	0	0	0	0
CO/N=C(\C(=O)N[C@@H]1C(=O)N2C(C(=O)O)=C(CSc3nc(C)c(CC(=O)O)s3)CS[C@H]12)c1csc(N)n1 [CEFODIZIME]	51	0	0	0	0	0	0	0	0	44.4	0	0	0	0
CO/N=C(\C(=O)N[C@@H]1C(=O)N2C(C(=O)[O-])=C(C[n+]3ccc(N)n3CCO)CS[C@H]12)c1csc(N)n1 [CEFOSELIS]	33	0	0	0	0	0	0	0	0	25	0	0	0	0
CO[C@@]1(NC(=O)C2SC(=C(C(N)=O)C(=O)O)S2)C(=O)N2C(C(=O)O)=C(CSc3nnnn3C)CS[C@@H]21 (stereo not given in full) [CEFOTETAN]	10	0	0	0	0	0	0	0	0	37.5	0	0	0	0
CO/N=C(\C(=O)N[C@@H]1C(=O)N2C(C(=O)[O-])=C(C[n+]3ccn4ncccc43)CS[C@H]12)c1nsc(N)n1 [CEFOZOPRAN]	68	0	0	0	0	0	0	0	0	50	0	0	0	0
O=C(O)C1=C(C[n+]2ccc(CCS(=O)(=O)[O-])cc2)CS[C@@H]2[C@H](NC(=O)[C@H](NC(=O)c3[nH]cnc3C(=O)O)c3ccccc3)C(=O)N12 [CEFPIMIZOLE]	30	0	0	0	0	0	0	0	0	18.8	0	0	0	0
CO/N=C(\C(=O)N[C@@H]1C(=O)N2C(C(=O)[O-])=C(C[n+]3cccc4c3CCC4)CS[C@H]12)c1csc(N)n1 [CEFPIROME]	62	0	0	0	0	0	0	0	0	33.3	0	0	0	0
COCC1=C(C(=O)OC(C)OC(=O)OC(C)C)N2C(=O)[C@@H](NC(=O)/C(=N\OC)c3csc(N)n3)[C@H]2SC1 (stereo not given in full) [CEFPODOXIME PROXETIL]	13	0	0	0	0	0	0	0	0	7.1	0	0	0	0
COCC1=C(C(=O)O)N2C(=O)[C@@H](NC(=O)/C(=N\OC)c3csc(N)n3)[C@H]2SC1 [CEFPODOXIME]	29	0	0	0	0	0	0	0	0	33.3	0	0	0	0
CC=CC1=C(C(=O)O)N2C(=O)[C@@H](NC(=O)[C@H](N)c3ccc(O)cc3)[C@H]2SC1 [CEFPROZIL]	42	0	0	0	0	0	1	0	1	25	0.6	0	0	0
COC1=C(C(=O)O)N2C(=O)[C@@H](NC(=O)[C@H](N)C3=CCC=CC3)[C@H]2SC1 [CEFROXADINE]	1	0	0	0	0	0	0	0	0	2	0	0	0	0
NC(=O)c1cc[n+](CC2=C(C(=O)O)N3C(=O)[C@@H](NC(=O)[C@@H](c4ccccc4)S(=O)(=O)[O-])[C@H]3SC2)cc1 [CEFSULODIN]	4	0	0	0	0	0	0	0	0	18.2	0	0	0	0
Nc1nc(/C(=C/CC(=O)O)C(=O)N[C@@H]2C(=O)N3C(C(=O)O)=CCS[C@H]23)cs1 [CEFTIBUTEN]	15	0	0	0	0	0	0	0	0	14.3	0	0	0	0
